Laboratory results published in patent publication US11945813B2, “5-substituted 4-amino-1H-benzo[c][1,2,6]thiadiazine 2,2-dioxides and formulations and uses thereof” (Firmenich Incorporated, priority 2018, dated 2024).

Target: T1, T1R2/T1R3 taste receptor (Homo sapiens, UniProt Q8TE23)
T1 sequence (Q8TE23 20-839): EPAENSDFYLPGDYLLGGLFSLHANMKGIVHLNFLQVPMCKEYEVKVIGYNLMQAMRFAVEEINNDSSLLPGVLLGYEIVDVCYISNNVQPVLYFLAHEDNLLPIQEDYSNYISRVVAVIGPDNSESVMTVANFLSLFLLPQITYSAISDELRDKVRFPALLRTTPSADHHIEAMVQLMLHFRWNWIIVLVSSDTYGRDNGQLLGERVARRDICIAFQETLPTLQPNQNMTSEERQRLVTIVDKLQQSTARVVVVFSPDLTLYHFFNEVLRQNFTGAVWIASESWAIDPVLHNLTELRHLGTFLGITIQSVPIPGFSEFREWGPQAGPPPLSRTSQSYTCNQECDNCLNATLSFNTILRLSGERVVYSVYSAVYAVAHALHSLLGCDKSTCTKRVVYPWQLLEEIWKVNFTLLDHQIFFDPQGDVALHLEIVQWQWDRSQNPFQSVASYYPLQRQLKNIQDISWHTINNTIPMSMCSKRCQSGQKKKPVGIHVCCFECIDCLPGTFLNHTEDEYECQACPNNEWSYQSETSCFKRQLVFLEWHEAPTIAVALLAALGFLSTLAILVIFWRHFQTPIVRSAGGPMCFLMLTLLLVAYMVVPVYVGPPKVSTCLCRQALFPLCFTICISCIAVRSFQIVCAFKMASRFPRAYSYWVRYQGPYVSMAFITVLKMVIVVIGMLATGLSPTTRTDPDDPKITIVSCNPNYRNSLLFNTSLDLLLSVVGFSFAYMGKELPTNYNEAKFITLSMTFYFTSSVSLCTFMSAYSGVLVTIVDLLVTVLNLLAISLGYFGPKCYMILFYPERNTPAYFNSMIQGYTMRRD
T1 sequence (Q7RTX0 21-852 partner): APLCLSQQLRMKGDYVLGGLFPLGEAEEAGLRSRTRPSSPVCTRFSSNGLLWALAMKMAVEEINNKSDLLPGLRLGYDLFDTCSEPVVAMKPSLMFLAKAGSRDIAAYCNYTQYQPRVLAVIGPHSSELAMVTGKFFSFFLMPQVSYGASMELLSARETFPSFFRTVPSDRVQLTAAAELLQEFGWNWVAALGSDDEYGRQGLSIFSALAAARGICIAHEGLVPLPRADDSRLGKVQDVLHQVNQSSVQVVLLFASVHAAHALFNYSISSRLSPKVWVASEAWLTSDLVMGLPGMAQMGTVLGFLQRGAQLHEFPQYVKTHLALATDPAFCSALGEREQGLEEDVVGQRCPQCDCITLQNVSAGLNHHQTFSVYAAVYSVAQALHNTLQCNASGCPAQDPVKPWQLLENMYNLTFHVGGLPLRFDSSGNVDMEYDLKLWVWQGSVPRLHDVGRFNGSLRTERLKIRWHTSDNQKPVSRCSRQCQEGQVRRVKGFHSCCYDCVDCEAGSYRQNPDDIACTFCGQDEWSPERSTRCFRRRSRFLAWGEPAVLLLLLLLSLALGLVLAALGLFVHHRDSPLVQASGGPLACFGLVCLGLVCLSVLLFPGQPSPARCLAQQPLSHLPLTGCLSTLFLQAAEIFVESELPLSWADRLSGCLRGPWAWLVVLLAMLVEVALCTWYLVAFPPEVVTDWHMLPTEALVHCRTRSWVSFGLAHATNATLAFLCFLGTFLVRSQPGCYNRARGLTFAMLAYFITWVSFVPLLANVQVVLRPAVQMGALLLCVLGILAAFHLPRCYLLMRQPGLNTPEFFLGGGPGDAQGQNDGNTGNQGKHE
Experiment: Receptor-based assay: sweetener EC50 alone and with test compound (enhancement ratio)
Assay type: cell-based
Details: for Fructose Enhancement EC50 Ratio: sweetener fructose; for Sucralose Enhancement EC50 Ratio: sweetener sucralose; for Sucrose Enhancement EC50 Ratio: sweetener sucrose
In short: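 Sucrose, sucralose or fructose EC50 measured on human T1R2/T1R3, alone and with 3, 10 or 50 μM test compound. Enhancement is the EC50 ratio without/with compound, binned A >20, B 10-20, C >1 to <10.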

Row | Structure (SMILES) | Fructose Enhancement EC50 Ratio (10 μM test compound) | Fructose Enhancement EC50 Ratio (50 μM test compound) | Sucralose Enhancement EC50 Ratio (10 μM test compound) | Sucralose Enhancement EC50 Ratio (50 μM test compound) | Sucrose Enhancement EC50 Ratio (3 μM test compound) | Sucrose Enhancement EC50 Ratio (10 μM test compound) | Sucrose Enhancement EC50 Ratio (50 μM test compound)
1 | CN(C)CCNC(=O)c1ccnc(N2CCC[C@H](COc3cccc4c3C(N)=NS(=O)(=O)N4)C2)c1 [Compound 605] | C (A “C” value indicates an enhancement ratio greater than 1 and less than 10) | C (A “C” value indicates an enhancement ratio greater than 1 and less than 10) | A (An “A” value indicates an enhancement ratio of greater than 20) | A (An “A” value indicates an enhancement ratio of greater than 20) | C (A “C” value indicates an enhancement ratio greater than 1 and less than 10) | C (A “C” value indicates an enhancement ratio greater than 1 and less than 10) | B (A “B” value indicates an enhancement ratio from 10 to 20)
2 | NC1=NS(=O)(=O)Nc2cccc(OC[C@H]3CCCN(c4ccc(C(=O)NC5CCCC5)cn4)C3)c21 [Compound 508] |  | C (A “C” value indicates an enhancement ratio greater than 1 and less than 10) | B (A “B” value indicates an enhancement ratio from 10 to 20) | A (An “A” value indicates an enhancement ratio of greater than 20) | C (A “C” value indicates an enhancement ratio greater than 1 and less than 10) | C (A “C” value indicates an enhancement ratio greater than 1 and less than 10) | C (A “C” value indicates an enhancement ratio greater than 1 and less than 10)
3 | NC1=NS(=O)(=O)Nc2cccc(OC[C@H]3CCCN(c4cc(C(=O)N5CCCCC5)ccn4)C3)c21 [Compound 613] |  |  | A (An “A” value indicates an enhancement ratio of greater than 20) | A (An “A” value indicates an enhancement ratio of greater than 20) |  | C (A “C” value indicates an enhancement ratio greater than 1 and less than 10) | C (A “C” value indicates an enhancement ratio greater than 1 and less than 10)
4 | CC(C)CNC(=O)c1cccc(N2CCC[C@H](COc3cccc4c3C(N)=NS(=O)(=O)N4)C2)n1 [Compound 416] |  | C (A “C” value indicates an enhancement ratio greater than 1 and less than 10) | A (An “A” value indicates an enhancement ratio of greater than 20) | A (An “A” value indicates an enhancement ratio of greater than 20) | C (A “C” value indicates an enhancement ratio greater than 1 and less than 10) | C (A “C” value indicates an enhancement ratio greater than 1 and less than 10) | B (A “B” value indicates an enhancement ratio from 10 to 20)
5 | Cc1cc(C)nc(NC(C)(C)COc2cccc3c2C(N)=NS(=O)(=O)N3)n1 [Compound 103] | C (A “C” value indicates an enhancement ratio greater than 1 and less than 10) | C (A “C” value indicates an enhancement ratio greater than 1 and less than 10) | A (An “A” value indicates an enhancement ratio of greater than 20) | A (An “A” value indicates an enhancement ratio of greater than 20) | C (A “C” value indicates an enhancement ratio greater than 1 and less than 10) | C (A “C” value indicates an enhancement ratio greater than 1 and less than 10) | C (A “C” value indicates an enhancement ratio greater than 1 and less than 10)
6 | CN(C)C(=O)c1ccnc(N2CCC[C@H](COc3cccc4c3C(N)=NS(=O)(=O)N4)C2)c1 [Compound 610] | C (A “C” value indicates an enhancement ratio greater than 1 and less than 10) | C (A “C” value indicates an enhancement ratio greater than 1 and less than 10) | A (An “A” value indicates an enhancement ratio of greater than 20) | A (An “A” value indicates an enhancement ratio of greater than 20) |  | C (A “C” value indicates an enhancement ratio greater than 1 and less than 10) | B (A “B” value indicates an enhancement ratio from 10 to 20)
7 | CC(C)NC(=O)c1ccnc(N2CCC[C@H](COc3cccc4c3C(N)=NS(=O)(=O)N4)C2)c1 [Compound 606] | C (A “C” value indicates an enhancement ratio greater than 1 and less than 10) | C (A “C” value indicates an enhancement ratio greater than 1 and less than 10) | A (An “A” value indicates an enhancement ratio of greater than 20) | A (An “A” value indicates an enhancement ratio of greater than 20) | C (A “C” value indicates an enhancement ratio greater than 1 and less than 10) | B (A “B” value indicates an enhancement ratio from 10 to 20) | C (A “C” value indicates an enhancement ratio greater than 1 and less than 10)
8 | COc1cc(OC)nc(N2CCC[C@H](COc3cccc4c3C(N)=NS(=O)(=O)N4)C2)n1 [Compound 306] | C (A “C” value indicates an enhancement ratio greater than 1 and less than 10) |  | B (A “B” value indicates an enhancement ratio from 10 to 20) | B (A “B” value indicates an enhancement ratio from 10 to 20) | C (A “C” value indicates an enhancement ratio greater than 1 and less than 10) | C (A “C” value indicates an enhancement ratio greater than 1 and less than 10) | C (A “C” value indicates an enhancement ratio greater than 1 and less than 10)
9 | COCCNc1nccc(NC(C)(C)COc2cccc3c2C(N)=NS(=O)(=O)N3)n1 [Compound 206] | C (A “C” value indicates an enhancement ratio greater than 1 and less than 10) | C (A “C” value indicates an enhancement ratio greater than 1 and less than 10) | B (A “B” value indicates an enhancement ratio from 10 to 20) | A (An “A” value indicates an enhancement ratio of greater than 20) | C (A “C” value indicates an enhancement ratio greater than 1 and less than 10) | C (A “C” value indicates an enhancement ratio greater than 1 and less than 10) | C (A “C” value indicates an enhancement ratio greater than 1 and less than 10)
10 | NC1=NS(=O)(=O)Nc2cccc(OC[C@H]3CCCN(c4ccc(C(=O)N5CCCCC5)cn4)C3)c21 [Compound 513] | C (A “C” value indicates an enhancement ratio greater than 1 and less than 10) | C (A “C” value indicates an enhancement ratio greater than 1 and less than 10) | A (An “A” value indicates an enhancement ratio of greater than 20) | A (An “A” value indicates an enhancement ratio of greater than 20) | C (A “C” value indicates an enhancement ratio greater than 1 and less than 10) | C (A “C” value indicates an enhancement ratio greater than 1 and less than 10) | C (A “C” value indicates an enhancement ratio greater than 1 and less than 10)
